Test results reported in patent US9206154B2 (The United States of America, as represented by the …, priority 2010, dated 2015).

How the values were obtained:
beta-adrenergic receptor = test: Isoproterenol-stimulated cAMP accumulation in human thyrocytes; type: cell-based
Text: (§1) This was important because it has been shown that TSHR mutants signal differently in different cell types. […] TSH and the small molecule ligand agonist that were identified previously specifically increase expression of several genes in thyrocytes (J Biomol Screen 13, 120, 2008; Proc Nat Acad Sci 106, 12471, 2009).

[1] = test system: TPO, TSHR, TG, DIO2 and NIS mRNAs; test: Basal expression of thyroid gene mRNAs in primary cultures of human thyrocytes (quantitative RT-PCR); type: cell-based; conditions: 30 μM, 48 hr, IBMX, no agonist
Method: FIG. 4B) Thyrocytes were incubated in media containing 2% fetal bovine serum and 1 mM IBMX without or with 30 μM 1 as described in Methods. After 48 h, the cells were lysed and the levels of the mRNAs were measured and normalized to GAPDH mRNA. The mRNA levels are presented as fold stimulation over control. The data are from three independent experiments with duplicate samples are shown.
Culture of primary human thyrocytes.
(§2) Quantitative RT-PCR. mRNA levels were measured using primers and probes were from Applied Biosystems. Quantitative RT-PCR results were normalized to GAPDH to correct for differences in RNA input.

adenylyl cyclase = test: Forskolin-stimulated cAMP accumulation in human thyrocytes; type: cell-based
Text: as §1

[2] = test system: 7TMR for vasoactive intestinal peptide; test: Vasoactive intestinal peptide-stimulated cAMP accumulation in human thyrocytes; type: cell-based
Text: as §1

TSHR [3] = molecular target: T1, TSHR (Homo sapiens, UniProt P16473); test: TSH-stimulated cAMP production in HEK-EM 293 cells stably expressing TSHRs; type: cell-based; conditions: for classification from dose response of TSH-stimulated cAMP (FIG. 11): 1 mU/ml hTSH (EC50 dose)
T1 construct: expressed in transfected cells
T1 sequence (P16473 21-764): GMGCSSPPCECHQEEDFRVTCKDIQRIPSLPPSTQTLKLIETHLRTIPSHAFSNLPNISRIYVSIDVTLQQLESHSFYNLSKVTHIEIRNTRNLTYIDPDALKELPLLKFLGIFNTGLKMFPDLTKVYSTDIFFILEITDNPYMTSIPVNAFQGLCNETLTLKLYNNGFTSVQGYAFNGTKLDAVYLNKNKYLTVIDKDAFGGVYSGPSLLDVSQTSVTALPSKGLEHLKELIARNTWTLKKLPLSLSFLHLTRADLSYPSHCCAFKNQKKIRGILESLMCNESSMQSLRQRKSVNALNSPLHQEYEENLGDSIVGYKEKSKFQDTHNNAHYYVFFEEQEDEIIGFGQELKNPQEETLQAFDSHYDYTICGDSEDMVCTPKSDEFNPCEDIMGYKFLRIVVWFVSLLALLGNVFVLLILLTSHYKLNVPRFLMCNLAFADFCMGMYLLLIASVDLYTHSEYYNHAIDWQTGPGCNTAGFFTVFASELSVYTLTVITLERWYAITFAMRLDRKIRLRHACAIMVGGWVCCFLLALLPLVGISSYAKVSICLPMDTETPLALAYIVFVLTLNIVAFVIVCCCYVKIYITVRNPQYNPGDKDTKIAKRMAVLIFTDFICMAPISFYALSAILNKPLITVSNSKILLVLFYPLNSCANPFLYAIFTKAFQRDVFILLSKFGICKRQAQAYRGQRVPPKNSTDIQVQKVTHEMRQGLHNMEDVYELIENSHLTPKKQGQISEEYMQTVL
Method: (§3) After 60 min, the cells were lysed and cAMP levels were measured by ELISA.
(§4) Non-treated cells, incubated with IBMX only, were used as control (basal activity). After 60 min, the cells were lysed and cAMP levels were measured by ELISA. […] After 40 min, the incubation was stopped and total cAMP levels were measured by ELISA.
After 40 min, the incubation was stopped and total cAMP levels were measured by ELISA. The data are from 2 experiments with duplicate samples and are presented as mean±SE.
(§5) Determination of cAMP production.

TSHR [4] = molecular target: T1, TSHR; conditions: cited from earlier work
TPO mRNA = test: Basal and TSAb-induced up-regulation of TPO mRNA in primary cultures of human thyrocytes; type: cell-based; conditions: 30 μM, 1:10 dilutions of GD sera, 48 hr
Method: Thyrocytes were incubated in DMEM containing 2% fetal bovine serum without (Control) or with 30 μM compound S2-6 without (basal) or with 1:10 dilutions of GD sera at 37 C. After 48 hr, the buffers were aspirated, the cells were lysed and the levels of TPO mRNA were measured and normalized to GAPDH mRNA. The mRNA levels are presented as fold of basal levels (Control). The data from 2 independent experiments with duplicate samples are shown.
as §2

[5] = cited from earlier work
TSHR [6] = molecular target: T1, TSHR; test: Graves' disease sera-stimulated cAMP production in HEKTSHR cells; type: cell-based; conditions: 1:30 dilutions of thirty GD sera
Method: FIG. 13A. […] After an additional 40 min, the incubation was stopped and total cAMP levels were measured by ELISA. The data are from one experiment with triplicate samples and are representative of 3 experiments. The effects of compound S2-6 were significant by paired t-test (P<0.01).
FIG. 13B. HEKTSHR cells were incubated without (Control) or with 30 μM compound S2-6 for 20 min and then 1 mM IBMX and 1:30 dilutions of thirty GD sera were added. After an additional 40 min, the incubation was stopped and total cAMP levels were measured by ELISA. […] The data are representative of 2 experiments performed in duplicate.

TSHR [7] = molecular target: T1, TSHR; test: Basal (agonist-independent) cAMP production in HEK-EM 293 cells stably expressing TSHRs; type: cell-based; conditions: for classification from dose response of basal cAMP (inverse agonist activity): 60 min in HBSS + 1 mM IBMX, % of basal activity
Method: as §3, §4
HEK-EM 293 cells stably expressing TSHRs were exposed to the noted concentrations of the small molecule ligands for 60 min in HBSS+1 mM IBMX. Non-treated cells, incubated with IBMX only, were used as control (basal activity). After 60 min, the cells were lysed and cAMP levels were measured by ELISA.
as §5

TSHR [8] = molecular target: T1, TSHR; test: 125I-TSH binding to TSHRs on the surface of HEK-EM 293 cells; conditions: HEK-EM 293 / HEKTSHR cells
Method: HEK-EM293 cells stably expressing TSHRs were seeded into 24-well plates and grown to near confluency. Cell surface binding was measured by incubation in 0.25 ml binding buffer (HBSS containing 2.5% milk powder and 0.2% BSA) containing 60,000 cpm bovine ^125I-TSH without or with xx μM 1 for 2 hr at RT; nonspecific binding was measured in the presence of 1.8 μM unlabeled bovine TSH. Cells were washed 3 times with 0.5 ml ice cold HBSS and lysed with 0.5 ml 0.4 N NaOH, and the cell-associated radioactivity counted in a gamma counter.

[9] = molecular target: T2, TSHRs on retro-orbital fibroblasts (Homo sapiens, UniProt P16473); test: TSHR signaling in retro-orbital fibroblasts from patients with Graves' orbitopathy; type: cell-based; conditions: preliminary experiment; fibroblasts in cell culture
T2 construct: endogenous in cells; host or cells: cultured retro-orbital fibroblasts from Graves' orbitopathy patients
T2 sequence (P16473 21-764): as above
Text: In a preliminary experiment, it has been shown that compound S2-6 inhibits activation of TSHRs on retro-orbital fibroblasts acquired from patients with Graves' orbitopathy. Retro-orbital fibroblasts were obtained from patients undergoing decompression eye surgery for Graves' orbitopathy and were adapted to cell culture.

COc1ccc(C2Nc3ccccc3C(=O)N2Cc2ccco2)cc1COc1c(C)cccc1C (centres unmarked) [Compound 1, 2-(3-((2,6-dimethylphenoxy)methyl)-4-methoxyphenyl)-3-(furan-2-ylmethyl)-2,3-dihydroquinazolin-4(1H)-one]
cAMP accumulation stimulated by isoproterenol (beta-adrenergic receptor): did not decrease | DIO2 mRNA level [1]: decreased | NIS mRNA level [1]: decreased | TG mRNA level [1]: decreased | TPO mRNA level [1]: decreased | TSHR mRNA level [1]: decreased | cAMP accumulation stimulated by forskolin (adenylyl cyclase): did not decrease | cAMP accumulation stimulated by vasoactive intestinal peptide [2]: did not decrease

COc1ccc(C2Nc3ccccc3C(=O)N2Cc2cccnc2)cc1COc1c(C)cccc1C (centres unmarked) [Compound S2-6, 2-(3-((2,6-dimethylphenoxy)methyl)-4-methoxyphenyl)-3-(pyridin-3-ylmethyl)-2,3-dihydroquinazolin-4-one]
classification from dose response of TSH-stimulated cAMP (FIG. 11) (TSHR [3]): neutral antagonists | inhibition at 30 µM (TSHR [3]; HEK-EM293, read-out: inhibition of cAMP production stimulated by an EC50 concentration of TSH at 30 μM): 53% | mode of antagonism of TSH signaling (TSHR [3]; varying TSH concentrations (Schild analysis for compound 1)): competitive | potency and efficacy as TSHR antagonist relative to compound 1 (TSHR [4]): as potent and effective as compound 1 | inhibition of basal and GD sera TSAb up-regulation of thyroperoxidase mRNA levels (TPO mRNA): 65±2.0% | solubility relative to compound 1 [5]: increased solubility | inhibition at 30 µM (TSHR [6]): 39 ± 2.6% | classification from dose response of basal cAMP (inverse agonist activity) (TSHR [7]): inverse agonists | inhibition at 30 µM (TSHR [7]; HEK-EM293, read-out: inhibition of basal cAMP production by TSHRs at 30 μM): 53% | effect on 125I-TSH binding to TSHRs (TSHR [8]): no effect | inhibition of basal signaling in retro-orbital fibroblasts [9]: 75% | inhibition of thyroid-stimulating antibody-stimulated signaling in retro-orbital fibroblasts [9]: 85%

COc1ccc(C2Nc3ccccc3C(=O)N2Cc2ccco2)cc1COc1c(C)cc(NC(C)=O)cc1C (centres unmarked) [Compound S2-7, N-(4-(5-(3-(Furan-2-ylmethyl)-4-oxo-1,2,3,4-tetrahydroquinazolin-2-yl)-2-methoxybenzyloxy)-3,5-dimethylphenyl)acetamide]
classification from dose response of TSH-stimulated cAMP (FIG. 11) (TSHR [3]): neutral antagonists | classification from dose response of basal cAMP (inverse agonist activity) (TSHR [7]): inverse agonists

COc1ccc(C2Nc3ccccc3C(=O)N2Cc2ccco2)cc1CSc1c(C)cccc1C (centres unmarked) [Compound S2-8, 2-(3-((2,6-Dimethylphenylthio)methyl)-4-methoxyphenyl)-3-(furan-2-ylmethyl)-2,3-dihydroquinazolin-4(1H)-one]
classification from dose response of TSH-stimulated cAMP (FIG. 11) (TSHR [3]): neutral antagonists | classification from dose response of basal cAMP (inverse agonist activity) (TSHR [7]): neutral antagonist

COc1ccc(C2Nc3ccccc3C(=O)N2Cc2cccnc2)cc1COc1c(C)cc(NC(C)=O)cc1C (centres unmarked) [Compound S2-17, N-(4-(2-Methoxy-5-(4-oxo-3-(pyridin-3-ylmethyl)-1,2,3,4-tetrahydroquinazolin-2-yl)benzyloxy)-3,5-dimethylphenyl)acetamide]
classification from dose response of TSH-stimulated cAMP (FIG. 11) (TSHR [3]): neutral antagonists

COCCN1C(=O)c2ccccc2NC1c1ccc(OC)c(COc2c(C)cc(NC(C)=O)cc2C)c1 (centres unmarked) [Compound S2-29, N-(4-(2-methoxy-5-(3-(2-methoxyethyl)-4-oxo-1,2,3,4-tetrahydroquinazolin-2-yl)benzyloxy)-3,5-dimethylphenyl)acetamide]
classification from dose response of TSH-stimulated cAMP (FIG. 11) (TSHR [3]): neutral antagonists
